Molecules are shown by their SMILES.

The target in the assay is T1, Bcl-2 protein (Recombinant Human Bcl-2 Protein) (Homo sapiens, UniProt P10415).
T1 construct: purchased Novus NBP2-34889
The assay is described as follows: Binding evaluation of mixture library compounds to Bcl-2 using AS-MS (affinity selection mass spectrometry). Conditions: ASMS Ratio(%)=(A−C)/B×100; for ASMS ratio (%) n = 1: replicate n = 1; for ASMS ratio (%) n = 2: replicate n = 2. The procedure, abridged:
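Affinity selection MS: Bcl-2 20 μM + 1200-cpd mixture, […]/cpd, Tris pH 7.4 buffer w/ Tween-20, DTT; 1 h 23° C dark; P-2 spin SEC; MeCN/MeOH extraction; RP LC/MS. ASMS Ratio(%) = (A−C)/B×100.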

Setting [1] is: AS-MS on the mixture of 1200 library compounds.

T1 sequence (P10415 whole entry): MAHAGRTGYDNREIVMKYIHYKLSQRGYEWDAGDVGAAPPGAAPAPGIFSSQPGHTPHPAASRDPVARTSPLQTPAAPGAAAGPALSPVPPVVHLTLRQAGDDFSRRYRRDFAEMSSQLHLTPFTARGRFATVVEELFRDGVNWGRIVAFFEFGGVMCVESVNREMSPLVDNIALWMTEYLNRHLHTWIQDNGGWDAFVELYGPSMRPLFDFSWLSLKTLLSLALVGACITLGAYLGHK

Regarding `CCOc1cccc(-c2csc(CN3CCN(c4ccc(C(=O)Nc5ccc(OC)cc5)nn4)CC3)c2)c1` [B1O093-01, 6-[4-[[4-(3-Ethoxyphenyl)thiophen-2-yl]methyl]piperazin-1-yl]-N-(4-methoxyphenyl)pyridazine-3-carboxamide], under setting [1], the “ASMS ratio (%) n = 1” value was 0.0% and the “ASMS ratio (%) n = 2” value is listed as 0.6%. In the same order, the values of `CCOc1cncc(-c2csc(CN3CCN(c4ccc(C(=O)Nc5ccc(OC)cc5)nn4)CC3)c2)c1` [B1O094-01, 6-[4-[[4-(5-Ethoxypyridin-3-yl)thiophen-2-yl]methyl]piperazin-1-yl]-N-(4-methoxyphenyl)pyridazine-3-carboxamide] are 2.2% and −0.7%. In the same order, the values of `CCOc1cccc(C#Cc2ccccc2CN2CCN(c3ccc(C(=O)Nc4ccc(OC)cc4)nn3)CC2)c1` [B1O095-01, 6-[4-[[2-[2-(3-Ethoxyphenyl)ethynyl]phenyl]methyl]piperazin-1-yl]-N-(4-methoxyphenyl)pyridazine-3-carboxamide] are 2.7% and 0.0%. With `CCOc1cncc(C#Cc2ccccc2CN2CCN(c3ccc(C(=O)Nc4ccc(OC)cc4)nn3)CC2)c1` [B1O096-01, 6-[4-[[2-[2-(5-Ethoxypyridin-3-yl)ethynyl]phenyl]methyl]piperazin-1-yl]-N-(4-methoxyphenyl)pyridazine-3-carboxamide], under setting [1], the “ASMS ratio (%) n = 1” value is reported as 0.0% and the “ASMS ratio (%) n = 2” value is listed as 3.5%. `CCOc1cccc(-c2ccc(C(C)N3CCN(c4ccc(C(=O)Nc5ccc(OC)cc5)cc4)CC3)cc2)c1` (centres unmarked) [B1O097-01, 4-[4-[1-[4-(3-Ethoxyphenyl)phenyl]ethyl]piperazin-1-yl]-N-(4-methoxyphenyl)benzamide]: under setting [1], the “ASMS ratio (%) n = 1” value amounted to 4.2% and the “ASMS ratio (%) n = 2” value is reported as 2.2%. `CCOc1cncc(-c2ccc(C(C)N3CCN(c4ccc(C(=O)Nc5ccc(OC)cc5)cc4)CC3)cc2)c1` (centres unmarked) [B1O098-01, 4-[4-[1-[4-(5-Ethoxypyridin-3-yl)phenyl]ethyl]piperazin-1-yl]-N-(4-methoxyphenyl)benzamide]: under setting [1], the “ASMS ratio (%) n = 1” value is −42.7% and the “ASMS ratio (%) n = 2” value is −0.2%. Turning to `CCOc1cccc(-c2ccc(C(C)N3CCN(c4ccc(C(=O)Nc5ccc(OC)cc5)cc4)CC3)c(F)c2)c1` (centres unmarked) [B1O099-01, 4-[4-[1-[4-(3-Ethoxyphenyl)-2-fluorophenyl]ethyl]piperazin-1-yl]-N-(4-methoxyphenyl)benzamide], under setting [1], the “ASMS ratio (%) n = 1” value is listed as 4.7% and the “ASMS ratio (%) n = 2” value came to 1.7%. Regarding `CCOc1cncc(-c2ccc(C(C)N3CCN(c4ccc(C(=O)Nc5ccc(OC)cc5)cc4)CC3)c(F)c2)c1` (centres unmarked) [B1O100-01, 4-[4-[1-[4-(5-Ethoxypyridin-3-yl)-2-fluorophenyl]ethyl]piperazin-1-yl]-N-(4-methoxyphenyl)benzamide], under setting [1], the “ASMS ratio (%) n = 1” value is −19.7% and the “ASMS ratio (%) n = 2” value turned out to be 11.1%.

With `CCOc1cccc(-c2csc(C(=O)N3CCN(c4ccc(C(=O)NS(=O)(=O)CC56CC7CC(CC(C7)C5)C6)nn4)CC3)c2)c1` [B2A001-01, N-(1-Adamantylmethylsulfonyl)-6-[4-[4-(3-ethoxyphenyl)thiophene-2-carbonyl]piperazin-1-yl]pyridazine-3-carboxamide], for the setting “AS-MS, mixture library, Bcl-2”, the “ASMS ratio (%) n = 1” value was 0.0% and the “ASMS ratio (%) n = 2” value is given as 0.0%.

On to `CCOc1cncc(-c2csc(C(=O)N3CCN(c4ccc(C(=O)NS(=O)(=O)CC56CC7CC(CC(C7)C5)C6)nn4)CC3)c2)c1` [B2A002-01, N-(1-Adamantylmethylsulfonyl)-6-[4-[4-(5-ethoxypyridin-3-yl)thiophene-2-carbonyl]piperazin-1-yl]pyridazine-3-carboxamide], for which, under “AS-MS, mixture library, Bcl-2”, the “ASMS ratio (%) n = 1” value worked out at 0.0% and the “ASMS ratio (%) n = 2” value was determined as 0.0%. On to `CCOc1cccc(-c2ccc(C(=O)N3CCN(c4ccc(C(=O)NS(=O)(=O)CC56CC7CC(CC(C7)C5)C6)nn4)CC3)cc2C)c1` [B2A003-01, N-(1-Adamantylmethylsulfonyl)-6-[4-[4-(3-ethoxyphenyl)-3-methylbenzoyl]piperazin-1-yl]pyridazine-3-carboxamide], for which, for the setting “AS-MS, mixture library, Bcl-2”, the “ASMS ratio (%) n = 1” value is given as 21.0% and the “ASMS ratio (%) n = 2” value was 11.0%. In the case of `CCOc1cncc(-c2ccc(C(=O)N3CCN(c4ccc(C(=O)NS(=O)(=O)CC56CC7CC(CC(C7)C5)C6)nn4)CC3)cc2C)c1` [B2A004-01, N-(1-Adamantylmethylsulfonyl)-6-[4-[4-(5-ethoxypyridin-3-yl)-3-methylbenzoyl]piperazin-1-yl]pyridazine-3-carboxamide], under “AS-MS, mixture library, Bcl-2”, the “ASMS ratio (%) n = 1” value stood at 0.0% and the “ASMS ratio (%) n = 2” value worked out at 0.0%. On to `CCOc1cccc(-c2ccc(C(=O)N3CCN(c4ccc(C(=O)NS(=O)(=O)CC56CC7CC(CC(C7)C5)C6)nn4)CC3)cc2F)c1` [B2A005-01, N-(1-Adamantylmethylsulfonyl)-6-[4-[4-(3-ethoxyphenyl)-3-fluorobenzoyl]piperazin-1-yl]pyridazine-3-carboxamide], for which, for the setting “AS-MS, mixture library, Bcl-2”, the “ASMS ratio (%) n = 1” value came to 4.7% and the “ASMS ratio (%) n = 2” value turned out to be 12.4%. Turning to `CCOc1cncc(-c2ccc(C(=O)N3CCN(c4ccc(C(=O)NS(=O)(=O)CC56CC7CC(CC(C7)C5)C6)nn4)CC3)cc2F)c1` [B2A006-01, N-(1-Adamantylmethylsulfonyl)-6-[4-[4-(5-ethoxypyridin-3-yl)-3-fluorobenzoyl]piperazin-1-yl]pyridazine-3-carboxamide], where the note is “AS-MS, mixture library, Bcl-2”, the “ASMS ratio (%) n = 1” value came out at 0.0% and the “ASMS ratio (%) n = 2” value worked out at 0.0%. On to `CCOc1cccc(C#Cc2ccccc2C(=O)N2CCN(c3ccc(C(=O)NS(=O)(=O)CC45CC6CC(CC(C6)C4)C5)nn3)CC2)c1` [B2A007-01, N-(1-Adamantylmethylsulfonyl)-6-[4-[2-[2-(3-ethoxyphenyl)ethynyl]benzoyl]piperazin-1-yl]pyridazine-3-carboxamide], for which the “ASMS ratio (%) n = 2” value (AS-MS, mixture library, Bcl-2) is 0.0%. In the case of `CCOc1cncc(C#Cc2ccccc2C(=O)N2CCN(c3ccc(C(=O)NS(=O)(=O)CC45CC6CC(CC(C6)C4)C5)nn3)CC2)c1` [B2A008-01, N-(1-Adamantylmethylsulfonyl)-6-[4-[2-[2-(5-ethoxypyridin-3-yl)ethynyl]benzoyl]piperazin-1-yl]pyridazine-3-carboxamide], for the setting “AS-MS, mixture library, Bcl-2”, the “ASMS ratio (%) n = 1” value turned out to be 3.1% and the “ASMS ratio (%) n = 2” value amounted to 7.2%.

With `CCOc1cccc(C#Cc2cncc(C(=O)N3CCN(c4ccc(C(=O)NS(=O)(=O)CC56CC7CC(CC(C7)C5)C6)nn4)CC3)c2)c1` [B2A009-01, N-(1-Adamantylmethylsulfonyl)-6-[4-[5-[2-(3-ethoxyphenyl)ethynyl]pyridine-3-carbonyl]piperazin-1-yl]pyridazine-3-carboxamide], under “AS-MS, mixture library, Bcl-2”, the “ASMS ratio (%) n = 1” value is 3.1% and the “ASMS ratio (%) n = 2” value amounted to 7.2%. As to `CCOc1cncc(C#Cc2cncc(C(=O)N3CCN(c4ccc(C(=O)NS(=O)(=O)CC56CC7CC(CC(C7)C5)C6)nn4)CC3)c2)c1` [B2A010-01, N-(1-Adamantylmethylsulfonyl)-6-[4-[5-[2-(5-ethoxypyridin-3-yl)ethynyl]pyridine-3-carbonyl]piperazin-1-yl]pyridazine-3-carboxamide], for the setting “AS-MS, mixture library, Bcl-2”, the “ASMS ratio (%) n = 1” value came out at 0.0% and the “ASMS ratio (%) n = 2” value is given as 0.0%.
